Key:
[1] = system: Staphylococcus aureus ACTT 6538; experiment: in vitro bacteria attachment assay on coated surgical mesh discs in SST medium; assay type: cell-based; conditions: serum containing media
Experimental: (§1) Taurolidine was dissolved at 4% wt./vol. in a 70% acetone 30% water vol./vol. mixture. Protamine sulfate was dissolved at 10% wt./vol. in water under warming. 50 μl of the taurolidine (TU) solution and 20 μl of the protamine (PS) solution were applied to each mesh disk using a pipette and allowed to dry at 50° C. until the majority of the liquid was gone and then stored under vacuum. First the taurolidine solution was applied, and then immediately thereafter the protamine sulfate solution was applied. The in vitro bacteria attachment assay was developed for its utility of indicating biofilm prevention potential of prototype mesh. Since bacterial attachment to a surface is the first step of biofilm formation, a surface treatment that inhibits bacterial attachment would reduce the chance of subsequent biofilm formation. The assay was conducted in SST (Serum Saline TSB) medium to mimic in vivo and clinical conditions. The formulation of SST is Tryptic Soy Broth (TSB):serum:saline in the ratio of 1:2:7. Each test article was incubated in SST inoculated with Staphylococcus aureus ACTT 6538 or Escherichia coli ATCC 25922 at about 6 Log CFU/ml. […] Viable bacteria populations were measured by plate count on TSA (Tryptic Soy agar) medium contain neutralizing agents. […]

[2] = system: Escherichia coli ATCC 25922; experiment: as above; assay type: cell-based; conditions: serum containing media
Experimental: as §1

[3] = cited from earlier work

## O=S1(=O)CCN(CN2CCS(=O)(=O)NC2)CN1 [TU, bis(1,1-dioxoperhydro-1,2,4-thiadiazinyl-4)-methane]
[1]
  inhibition of attachment by S. aureus to treated mesh surface: less inhibition than the combination
[2]
  inhibition of attachment by E. coli to treated mesh surface: less inhibition than the combination
[3]; cumulative doses
  cumulative dose shown to be safe and well tolerated: exceeding 300 g
[3]; systemic doses
  systemic dose shown to be safe and well tolerated: exceeding 40 g/day
